For the assay, the system named is human TERT expression (hTERT mRNA transcripts). Description: Quantitative real-time RT-PCR of hTERT mRNA transcripts in compound-treated cells. Further: test concentration or dose not given here. It is filed as cell-based. An excerpt: Telomerase is a ribonucleoprotein complex composed of the catalytic protein subunit (human telomerase reverse transcriptase or hTERT) and the RNA template. hTERT expression level can be measured by PCR.
Quantitative Reverse Transcription PCR can be run according to procedures outlined in Yajima et al. (Yajima, T. et al. Quantitative Reverse Transcription-PCR Assay of the RNA Component of Human Telomerase Using the TaqMan Fluorogenic Detection System Clinical Chemistry, 44:12, 2441-2445, 1998).
The principle of real-time PCR was first described by Heid et al. (Heid C. A., Stevens J., Livak K. J., Williams P. M. Real time quantitative PCR. Genome Res., 6: 986-994, 1996). Briefly, amplification of the target sequence is monitored per PCR cycle by detecting the fluorescence signal emitted by an internal probe that is degraded by the 5′ nuclease activity of the Taq polymerase. The emission signal accumulates in each sample, and the Ct required to reach a given fluorescence threshold is determined (Ct stands for Cycle Threshold and is a measure of the number of PCR cycles that are required to amplify a target—thus, a lower Ct score means that there is more abundant hTERT mRNA). Thus, the C1 value of a sample inversely correlates to the quantity of the starting cDNA which correlates to the number of mRNA transcripts. Using the cDNA of known quantity, a standard curve can be generated and used to determine the starting amount of mRNA transcripts based on the […] of each sample.
Quantitative real-time PCR can be done on cDNA from test compound-treated and nontreated cells by use of a ABI Prism 7900 Sequence Detection System (PE Applied Biosystems, Foster City, CA) following the Assays-on-Demand protocol (PE Applied Biosystems, Foster City, CA). Quantitative data can be analyzed using the Sequence Detection System software version 2.1 (PE Applied Biosystems).
The following compounds were tested in assays designed to identify compounds that enhance human TERT expression. The compounds turned on human TERT expression in these assays.

These results are taken from US12168019B1, “8-hydroxy quinoline derivatives for enhancing telomerase reverse transcriptase (TERT) expression” (Sierra Sciences, Inc., priority 2010, dated 2024).

For `CCC(=O)NC(c1ccc(N(C)C)cc1)c1ccc2cccnc2c1O` (stereo not drawn) [Compound 1001], the “Average Number of hTERT Transcripts” value was 12.47. Then `CN1CCN(Cc2cc(COCc3ccccc3)c3cccnc3c2O)CC1` [Compound 1003], with 10.05; and `Oc1c(C(Nc2ccccn2)c2ccc(OC3CCCC3)cc2)ccc2cccnc12` (stereo not drawn) [Compound 1004], with 12.11. Take `Oc1c(C(Nc2ccccn2)c2cccc(Cl)c2Cl)ccc2cccnc12` (stereo not drawn) [Compound 1006]: the “Average Number of hTERT Transcripts” value is given as 25.82. Then `COC(=O)c1ccc(C(Nc2cc(C)ccn2)c2ccc3ccc(C)nc3c2O)cc1` (stereo not drawn) [Compound 1008], with 43.18; and `Oc1c(C(Nc2ccccn2)c2c(Cl)cccc2Cl)ccc2cccnc12` (stereo not drawn) [Compound 1009], with 50.29; and `COc1ccc(C(=O)NC(c2ccco2)c2cc(Cl)c3cccnc3c2O)cc1` (stereo not drawn) [Compound 1012], with 12.01. As for `COc1cccc(C(=O)NC(c2ccc(OC)c(OC)c2)c2cc(Cl)c3cccnc3c2O)c1` (stereo not drawn) [Compound 1013], the “Average Number of hTERT Transcripts” value was 40.42. The figure for `COc1ccc(C(=O)NC(c2ccc(Cl)cc2)c2cc(Cl)c3cccnc3c2O)cc1` (stereo not drawn) [Compound 1014] is 11.55.

For the molecule `O=C(COc1ccccc1)NC(/C=C/c1ccccc1)c1cc(Cl)c2cccnc2c1O` (stereo not drawn) [Compound 1015], the “Average Number of hTERT Transcripts” value is reported as 63.93.

On to `COc1ccc(C(=O)NC(/C=C/c2ccccc2)c2cc(Cl)c3cccnc3c2O)cc1` (stereo not drawn) [Compound 1016], for which the “Average Number of hTERT Transcripts” value is 10.9. The figure for `COc1cccc(C(=O)NC(/C=C/c2ccccc2)c2cc(Cl)c3cccnc3c2O)c1` (stereo not drawn) [Compound 1017] is 96.98; for `Oc1c(Br)cc(Br)c2cccnc12` [Compound 1019] it is 271.75; for `Oc1c(I)cc(Cl)c2cccnc12` [Compound 1021] it is 60.68. The figure for `CC(=O)NC(c1ccc(Br)cc1)c1ccc2cccnc2c1O` (stereo not drawn) [Compound 1022] is 60.01; for `COc1ccc(C(NC(C)=O)c2ccc3cccnc3c2O)cc1OC` (stereo not drawn) [Compound 1023] it is 160.65. Then `CC(=O)NC(c1ccc(C)cc1)c1ccc2cccnc2c1O` (stereo not drawn) [Compound 1024], with 165.68; and `CCCCC(=O)NC(c1ccccc1OC)c1cc([N+](=O)[O-])c2cccnc2c1O` (stereo not drawn) [Compound 1027], with 19.72; and `CC(=O)NC(c1ccc(C(C)C)cc1)c1ccc2cccnc2c1O` (stereo not drawn) [Compound 1030], with 26.47.

Regarding `CCCCC(=O)NC(c1ccccc1Cl)c1cc([N+](=O)[O-])c2cccnc2c1O` (stereo not drawn) [Compound 1031], the “Average Number of hTERT Transcripts” value is reported as 44.8. Turning to `CCC(=O)NC(c1ccc(OC)c(OC)c1)c1cc(Cl)c2cccnc2c1O` (stereo not drawn) [Compound 1032], the “Average Number of hTERT Transcripts” value came to 39.96. The figure for `CCOc1cc(C(NC(C)=O)c2cc([N+](=O)[O-])c3cccnc3c2O)ccc1O` (stereo not drawn) [Compound 1033] is 28.91; for `CC(=O)NC(c1ccco1)c1cc([N+](=O)[O-])c2cccnc2c1O` (stereo not drawn) [Compound 1034] it is 44.71. The figure for `CCC(=O)NC(/C=C/c1ccccc1)c1cc([N+](=O)[O-])c2cccnc2c1O` (stereo not drawn) [Compound 1035] is 66.72; for `CCCC(=O)NC(c1ccc(O)c(OCC)c1)c1cc([N+](=O)[O-])c2cccnc2c1O` (stereo not drawn) [Compound 1036] it is 65; for `CC(=O)NC(c1ccc(Cl)cc1)c1cc([N+](=O)[O-])c2cccnc2c1O` (stereo not drawn) [Compound 1037] it is 55.41.

With `CCC(=O)NC(c1ccco1)c1cc(Cl)c2cccnc2c1O` (stereo not drawn) [Compound 1039], the “Average Number of hTERT Transcripts” value amounted to 30.9. The figure for `CCCCC(=O)NC(c1ccc(OC)cc1)c1cc([N+](=O)[O-])c2cccnc2c1O` (stereo not drawn) [Compound 1040] is 25.16.

For the molecule `CCC(=O)NC(c1ccccc1Cl)c1cc(Cl)c2cccnc2c1O` (stereo not drawn) [Compound 1041], the “Average Number of hTERT Transcripts” value amounted to 20.78. With `CC(C)C(=O)NC(c1ccc(Cl)cc1Cl)c1ccc2cccnc2c1O` (stereo not drawn) [Compound 1042], the “Average Number of hTERT Transcripts” value was 10.53. The figure for `CCC(=O)NC(c1ccccc1OC)c1cc(Cl)c2cccnc2c1O` (stereo not drawn) [Compound 1043] is 15.13. Then `CCCC(=O)NC(c1ccc(Cl)cc1)c1cc([N+](=O)[O-])c2cccnc2c1O` (stereo not drawn) [Compound 1044], with 92.93; and `Cc1ccc(C(NC(=O)C2CCCCC2)c2ccc3cccnc3c2O)cc1` (stereo not drawn) [Compound 1047], with 43.89; and `CCCC(=O)NC(c1cccs1)c1cc([N+](=O)[O-])c2cccnc2c1O` (stereo not drawn) [Compound 1048], with 58.04. Then `CCC(=O)NC(c1ccc(C)cc1)c1cc([N+](=O)[O-])c2cccnc2c1O` (stereo not drawn) [Compound 1049], with 49.12; and `CC(=O)NC(c1ccccc1)c1cc([N+](=O)[O-])c2cccnc2c1O` (stereo not drawn) [Compound 1050], with 47.68; and `CCC(=O)NC(c1ccccc1OC)c1cc([N+](=O)[O-])c2cccnc2c1O` (stereo not drawn) [Compound 1051], with 45.24.

As to `CCCCC(=O)NC(c1ccc(OC)c(OC)c1)c1cc([N+](=O)[O-])c2cccnc2c1O` (stereo not drawn) [Compound 1053], the “Average Number of hTERT Transcripts” value was 47.54.

Turning to `CCCCC(=O)NC(c1ccc(Cl)cc1)c1cc([N+](=O)[O-])c2cccnc2c1O` (stereo not drawn) [Compound 1054], the “Average Number of hTERT Transcripts” value is on record as 8.59. Then `CCCCC(=O)NC(c1ccco1)c1cc([N+](=O)[O-])c2cccnc2c1O` (stereo not drawn) [Compound 1055], with 28.89; and `CCCC(=O)NC(c1ccc(C(C)C)cc1)c1cc([N+](=O)[O-])c2cccnc2c1O` (stereo not drawn) [Compound 1056], with 62.15. Then `CC(=O)NC(c1ccc(C(C)C)cc1)c1cc(Cl)c2cccnc2c1O` (stereo not drawn) [Compound 1057], with 12.42; and `CC(=O)NC(c1cccs1)c1ccc2cccnc2c1O` (stereo not drawn) [Compound 1058], with 47.99. As for `CCN(CC)c1ccc(C(NC(=O)C(C)C)c2ccc3cccnc3c2O)cc1` (stereo not drawn) [Compound 1060], the “Average Number of hTERT Transcripts” value was found to be 65.91. On to `CCCCC(=O)NC(c1ccc(OC)cc1)c1cc(Cl)c2cccnc2c1O` (stereo not drawn) [Compound 1061], for which the “Average Number of hTERT Transcripts” value is 128.91. With `CC(C)C(=O)NC(c1ccc(C(C)C)cc1)c1cc(Cl)c2cccnc2c1O` (stereo not drawn) [Compound 1062], the “Average Number of hTERT Transcripts” value turned out to be 47.98.

In the case of `CCCCC(=O)NC(c1cccs1)c1cc([N+](=O)[O-])c2cccnc2c1O` (stereo not drawn) [Compound 1063], the “Average Number of hTERT Transcripts” value is on record as 205.2. The figure for `CC(C)C(=O)NC(c1ccc2c(c1)OCO2)c1cc([N+](=O)[O-])c2cccnc2c1O` (stereo not drawn) [Compound 1064] is 52.74; for `O=C(CCc1ccccc1)NC(c1ccc2c(c1)OCO2)c1ccc2cccnc2c1O` (stereo not drawn) [Compound 1065] it is 24.47; for `CCCC(=O)NC(c1ccc(N(C)C)cc1)c1cc(Cl)c2cccnc2c1O` (stereo not drawn) [Compound 1066] it is 43.68. Consider `CCCCC(=O)NC(c1cccs1)c1cc(Cl)c2cccnc2c1O` (stereo not drawn) [Compound 1067], for which the “Average Number of hTERT Transcripts” value was 16.2. Then `CCCCC(=O)NC(/C=C/c1ccccc1)c1cc([N+](=O)[O-])c2cccnc2c1O` (stereo not drawn) [Compound 1069], with 101.8.

On to `CCCC(=O)NC(c1ccc(N(CC)CC)cc1)c1cc(Cl)c2cccnc2c1O` (stereo not drawn) [Compound 1070], for which the “Average Number of hTERT Transcripts” value is 68.65. Then `CC(C)C(=O)NC(c1ccc(C(C)C)cc1)c1cc([N+](=O)[O-])c2cccnc2c1O` (stereo not drawn) [Compound 1071], with 70.74. The figure for `COc1ccc(C(NC(=O)C2CCCCC2)c2cc([N+](=O)[O-])c3cccnc3c2O)cc1OC` (stereo not drawn) [Compound 1072] is 93.44; for `CCC(=O)NC(c1ccccc1Cl)c1cc([N+](=O)[O-])c2cccnc2c1O` (stereo not drawn) [Compound 1074] it is 49.89. Then `CCCC(=O)NC(c1ccco1)c1cc(Cl)c2cccnc2c1O` (stereo not drawn) [Compound 1077], with 15.88; and `Cc1ccc2ccc(C(Nc3ccccn3)c3cccc([N+](=O)[O-])c3)c(O)c2n1` (stereo not drawn) [Compound 1078], with 36.96. For the molecule `Cc1ccnc(NC(c2cccc(Cl)c2)c2ccc3ccc(C)nc3c2O)c1` (stereo not drawn) [Compound 1080], the “Average Number of hTERT Transcripts” value is 26.36. Then `Oc1c(C(Nc2ccccn2)c2ccc(Cl)c(Cl)c2)ccc2cccnc12` (stereo not drawn) [Compound 1082], with 7.54.
